Data set [1] concerns the target T1, recombinant human GST-Syk (Homo sapiens, UniProt P43405).
T1 construct: purchased Carna Biosciences 08-176
The data set is described as follows: Homogeneous Time-Resolved Fluorescence (HTRF) assay for the recombinant human Syk enzyme. The data set is classed as biochemical. The settings on record: ATP 25 μM, 10-dose titration. The method in brief:
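Recombinant GST-hSyk ([…]) was preincubated 10 min at room temperature with inhibitor (0.1% DMSO) in Tris pH 7.5, then reacted for 45 min with 250 nM biotinylated peptide, 5 mM Mg and 25 μM ATP. Phosphorylation was detected by HTRF (Eu-anti-phosphotyrosine/SA-APC). IC50 was derived from a 10-dose titration (10 μM–0.508 nM) with a 4-parameter fit.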
In general terms: Time-resolved FRET reads energy transfer from a long-lived donor to a nearby acceptor.

Data set [2] deals with allergic rhinitis. The settings on record: dosed intranasally, phase I/II study; cited from earlier work.
The subject of data set [3] is allergic rhinitis. The settings on record: phase II clinical trial; cited from earlier work.

Where two headings read alike, the source gives them in different places.

In the case of `CC(C)NC(=O)c1cn(-c2cccc(Nc3nccc(C(F)(F)F)n3)c2)cn1` [Example 103, N-(1-methylethyl)-1-(3-{[4-(trifluoromethyl)pyrimidin-2-yl]amino}phenyl)-1H-imidazole-4-carboxamide], the IC50 in data set [1] (read-out: rhSYK Activity) lay within 0.1 to 1 µM.

Regarding `CC(C)(O)c1cn(-c2cccc(Nc3nccc(C(F)(F)F)n3)c2)cn1` [Example 104, 2-[1-(3-{[4-(trifluoromethyl)pyrimidin-2-yl]amino}-phenyl)-1H-imidazol-4-yl]propan-2-ol], the IC50 in data set [1] (read-out: rhSYK Activity) fell in the range of 0.1 to 1 µM.

As to `CC(C)(O)CCc1cn(-c2cc(Nc3nccc(C(F)(F)F)n3)cc(N3CCOCC3)c2)cn1` [Example 105, 2-methyl-4-[1-(3-morpholin-4-yl-5-{[4-(trifluoromethyl)pyrimidin-2-yl]amino}-phenyl)-1H-imidazol-4-yl]butan-2-ol], the IC50 in data set [1] (read-out: rhSYK Activity) was at most 0.1 µM. As for `COC(=O)CCc1cn(-c2cc(Nc3nccc(C(F)(F)F)n3)cc(N3CCOCC3)c2)cn1` [Example 106, Methyl 3-[1-(3-morpholin-4-yl-5-{[4-(trifluoromethyl)pyrimidin-2-yl]amino}-phenyl)-1H-imidazol-4-yl]propanoate], the IC50 in data set [1] (read-out: rhSYK Activity) was at most 0.1 µM. In the case of `CC(C)(O)c1cn(-c2cc(Nc3nccc(C(F)(F)F)n3)cc(N3CCOCC3)c2)cn1` [Example 107, 2-[1-(3-morpholin-4-yl-5-{[4-(trifluoromethyl)pyrimidin-2-yl]amino}-phenyl)-1H-imidazol-4-yl]propan-2-ol], the IC50 in data set [1] (read-out: rhSYK Activity) is at most 0.1 µM. With `COC(=O)c1cn(-c2cc(Nc3nccc(C(F)(F)F)n3)cc(N3CCOCC3)c2)cn1` [Example 108, Methyl 1-(3-morpholin-4-yl-5-{[4-(trifluoromethyl)-pyrimidin-2-yl]amino}-phenyl)-1H-imidazole-4-carboxylate], the IC50 in data set [1] (read-out: rhSYK Activity) was 0.1 to 1 µM. `Cc1cc(Nc2nccc(C(F)(F)F)n2)cc(-n2cnc(C3(O)CCNC(=O)CC3)c2)c1` (centres unmarked) [Example 109, 5-hydroxy-5-[1-(3-methyl-5-{[4-(trifluoromethyl)pyrimidin-2-yl]amino}phenyl)-1H-imidazol-4-yl]azepan-2-one]: the results for the IC50 in data set [1] (read-out: rhSYK Activity) and in data set [1] (read-out: rhSYK IC50) were at most 0.1 µM and 0.0197 µM, respectively.

In the case of `Cc1cc(Nc2nccc(C(F)(F)F)n2)cc(-n2cnc(C(C)(C)C#N)c2)c1` [Example 110, 2-Methyl-2-[1-(3-methyl-5-{[4-(trifluoromethyl)pyrimidin-2-yl]amino}phenyl)-1H-imidazol-4-yl]propanenitrile], the IC50 in data set [1] (read-out: rhSYK Activity) lay in the range of 0.1 to 1 µM.

For the compound `Cc1cc(Nc2nccc(C(F)(F)F)n2)cc(-n2cnc(C(C)(C)C(=O)O)c2)c1` [Example 111, 2-Methyl-2-[1-(3-methyl-5-{[4-(trifluoromethyl)pyrimidin-2-yl]amino}phenyl)-1H-imidazol-4-yl]propanoic acid], the IC50 in data set [1] (read-out: rhSYK Activity) was at most 0.1 µM. Take `C=C(C)c1cn(-c2cc(C)cc(Nc3nccc(C(F)(F)F)n3)c2)cn1` [Example 112, N-{3-Methyl-5-[4-(prop-1-en-2-yl)-1H-imidazol-1-yl]phenyl}-4-(trifluoromethyl)pyrimidin-2-amine]: the IC50 in data set [1] (read-out: rhSYK Activity) is at most 0.1 µM. Same read-out and setting: the same measure for `O=C(O)CCc1cn(-c2cccc(Nc3cc(C(F)(F)F)ccn3)n2)cn1` [Example 114, 3-(1-(6-((4-(Trifluoromethyl)pyridin-2-yl)amino)pyridin-2-yl)-1H-imidazol-4-yl)propanoic acid]: at most 0.1 µM; for `Cc1cc(Nc2cc(C3CC3)ccn2)nc(-n2cnc(CCC(=O)O)c2)c1` [Example 115, 3-(1-(6-((4-cyclopropylpyridin-2-yl)amino)-4-methylpyridin-2-yl)-1H-imidazol-4-yl)propanoic acid]: at most 0.1 µM. With `Cc1cc(Nc2cc(C(F)(F)F)ccn2)nc(-n2cnc(C3(O)CCN(C(N)=O)CC3)c2)c1` [Example 116, 4-Hydroxy-4-[1-(4-methyl-6-{[4-(trifluoromethyl)pyridin-2-yl]amino}pyridin-2-yl)-1H-imidazol-4-yl]piperidine-1-carboxamide], the figures for the IC50 in data set [1] (read-out: rhSYK Activity) and in data set [1] (read-out: rhSYK IC50) were at most 0.1 µM and 0.0036 µM, respectively. As for `Cc1cc(Nc2nccc(C(F)(F)F)n2)cc(-n2cnc(C3(O)CCN(C(N)=O)CC3)c2)c1` [Example 117, 4-Hydroxy-4-[1-(3-methyl-5-{[4-(trifluoromethyl)pyrimidin-2-yl]amino}phenyl)-1H-imidazol-4-yl]piperidine-1-carboxamide], the IC50 in data set [1] (read-out: rhSYK Activity) is at most 0.1 µM; in data set [1] (read-out: rhSYK IC50), 0.009 µM. For the compound `Oc1cccc(Nc2ncc(F)c(Nc3cccc(O)c3)n2)c1` [Example R112], in data set [2], the PGD2 change result was “statistically significant decrease in PGD2” and the clinical safety result is recorded as “safe across a range of indicators”. The efficacy versus placebo entry in data set [3] is on record as “lack of efficacy versus placebo”.

The values are drawn from US9487504B2, “Imidazolyl analogs as syk inhibitors” (Merck Sharp & Dohme Corp., priority 2012, dated 2016).
